The record followed here is PMC10447463, “Data-mining unveils structure–property–activity correlation of viral infectivity enhancing self-assembling peptides” (Nature Communications, 2023).

The test system of series [1] is HIV-1 infection of TZM-bl cells. Nature of the series: HIV-1 infectivity enhancement assay, β-galactosidase luminescence. Type of series: cell-based. To be noted: for Rel-EFC / Log10 Infection Rel EFC: 1.3 µM peptide; for Rel-EFC: infection relative to EF-C (QCKIKQIINMWQ = 1); for Log10 Infection Rel EFC: log10 of infection relative to EF-C; for Log Infectivity: Log10 infection relative to EF-C, TZM-bl cells, asymmetric std dev errors; for Log10 Infection Rel EF-C: HIV-1 infection of TZM-bl cells.

Series [2] is classed as physicochemical. As to conditions: for ThT Cat. / ThT-Fluorescence (categorical): ThT-active if fluorescence at least twice the control. The essentials: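 Preformed peptide fibrils (1 mg/mL) mixed with 50 µM ThT in PBS, 15 min at RT, fluorescence ex 440/em 488 nm versus PBS blank, triplicates. Zeta potential: peptides at 1 mg/mL in PBS pH 7.4, aged 1 d at RT, diluted in 1 mM KCl, Smoluchowski from electrophoretic mobility.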

Series [3] is described as follows: Conversion rate (CR) assay with fluorescamine. The class given is physicochemical. Also noted: key to CR: % = 100−100×filtrate/original fluorescence intensity. To be noted: conversion rate, fluorescamine assay; for CR / %: Fig. S7 panel B. The essentials: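 Peptide monomer conversion into nanostructures was quantified by separating free monomer via 3 kDa ultrafiltration, then labelling amines in filtrate and whole sample with fluorescamine in DMSO. CR was derived as 100 − 100 × (filtrate/original fluorescence), triplicate means with SD.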

Setting [4] is: Fig. S7 panel A (plotted against β-sheet content).
Where [5] appears, read: Fig. S7 panel B (plotted against CR), rounded to two decimals.
Where [6] appears, read: Log10 of infection rate relative to EF-C, Figure 3A source data.
The mark [7] stands for this setting: infection rate relative to EF-C, log10, data of Figure 2D.
[8] abbreviates: infection rate relative to EF-C, log10, source data of Figure 2C.

Read-outs that look alike come from different tables or passages of the source.

Turning to CSISIQI, the Rel-EFC in series [1] is listed as 0,06. In addition, the “Log10 Infection Rel EFC” value in series [1] is -1,25. Further, the “Log Infectivity” value in series [1] (setting [4]) was -1.252; in series [1] (setting [5]), -1.25. Also, the “Log10 Infection Rel EF-C” value in series [1] (setting [6]) was -1.25; in series [1] (setting [7]), -1.252; in series [1] (setting [8]), -1.252. Besides, the “Abs. Infection at 0.26 µM” value in series [1] (peptide 0.26 µM, mean of n = 3, Figure 4A) stood at 1390. Besides, in series [1] (peptide 0.26 µM, replicate 1, absolute infection signal, Figure 4A), the “Infect 1 0.26 µM” value is on record as 1340. Moreover, in series [1] (peptide 0.26 µM, replicate 2, absolute infection signal, Figure 4A), the “Infect 2 0.26 µM” value was 1160. Besides, the “Infect 3 0.26 µM” value in series [1] (peptide 0.26 µM, replicate 3, absolute infection signal, Figure 4A) was 1670. Besides, the “Abs. Infection at 1.3 µM” value in series [1] (peptide 1.3 µM, mean of n = 3, Figure 4A) is 3087. In series [1] (peptide 1.3 µM, replicate 1, absolute infection signal, Figure 4A), the “Infect 1 .3 µM” value amounted to 3310. Moreover, the “Infect 2 1.3µM” value in series [1] (peptide 1.3 µM, replicate 2, absolute infection signal, Figure 4A) is recorded as 2600. In addition, the “Infect 3 1.3 µM” value in series [1] (peptide 1.3 µM, replicate 3, absolute infection signal, Figure 4A) was found to be 3350. Besides, the “Tht category (> 2 to blank = +)” value is 1 (ThT. Cat is 1, if Rel. ThT >2) in series [2] (Fig S10 panel D) and 1 (ThT. Cat is 1, if Rel. ThT >2) in series [2] (FigS12 panel A). The “ThT Cat.” value in series [2] (Fig S10 panel E) is on record as 1 (ThT. Cat is 1, if Rel. ThT >2); in series [2] (ThT fluorescence category, 1 if Rel. ThT >2), 1 (ThT. Cat is 1, if Rel. ThT >2). The “ThT Cat,” value in series [2] (FigS12 panel B) is listed as 1 (ThT. Cat is 1, if Rel. ThT >2); in series [2] (ThT category, 1 if Rel. ThT >2) it was 1 (ThT. Cat is 1, if Rel. ThT >2). The “ThT Cat. / ThT-Fluorescence (categorical)” value in series [2] was 1 (ThT. Cat is 1, if Rel. ThT >2). In series [3], the CR / % amounted to 79.3%. Moreover, the CR in series [3] is listed as 79.31.

As to CKFKQFFNMWQ, the Rel-EFC in series [1] is 0,61. Also, the “Log10 Infection Rel EFC” value in series [1] is given as -0,21. The results for the “Log Infectivity” value in series [1] (setting [4]) and in series [1] (setting [5]) were -0.2148 and -0.21, respectively. Moreover, the “Log10 Infection Rel EF-C” value is on record as -0.21 in series [1] (setting [6]), -0.2148 in series [1] (setting [7]) and -0.2148 in series [1] (setting [8]). Moreover, the “Log10 of Rel to EFC (Feb2021)” value in series [1] (Log10 of infection relative to EF-C, all peptides of FigS16) is listed as -0.21. Also, the “Abs. Inf.” value in series [1] (absolute infection signal, HIV-1 on TZM-bl cells, β-galactosidase luminescence) is on record as 23486.66667. The “Log10 Inf. rel. to EF-C” value in series [1] (log10 of HIV-1 infection of TZM-bl cells relative to EF-C (EF-C = 0)) is on record as -0.2148. Further, in series [2] (Fig S10 panel D), the “Tht category (> 2 to blank = +)” value is 1 (ThT. Cat is 1, if Rel. ThT >2). In addition, the “ThT Cat.” value in series [2] (Fig S10 panel E) is on record as 1 (ThT. Cat is 1, if Rel. ThT >2); in series [2] (ThT category, 1 if Rel. ThT >2) it was 1 (ThT. Cat is 1, if Rel. ThT >2). In series [2] (ThT category, 1 if Rel. ThT >2), the “ThT Cat,” value is given as 1 (ThT. Cat is 1, if Rel. ThT >2). For the same substance, in series [2], the “ThT Cat. / ThT-Fluorescence (categorical)” value was 1 (ThT. Cat is 1, if Rel. ThT >2). Further, in series [3], the CR / % worked out at 98.7%. The same substance returned a CR in series [3] of 98.72.
